IC50, AC50 and EC50 data for 16 compounds are collected here from ChEMBL document CHEMBL1201862, “PubChem BioAssay data set” (2004).

Experiment [1] is described as follows: half-maximal inhibitory concentration for glucagon-like peptide-1 release, STC-1 cell line, dose-response (AID 1117345). The class given is functional, cell-based.
Experiment [2] in a line: Glucagon-like peptide 1 release potency, NCI-H716 cell line, dose-response, half-maximal inhibitory concentration (AID 1117344). The class given is functional, cell-based.
A short description of experiment [3]: CTGF mRNA reduction under YAP1 overexpression, dose response, mechanism study for YAP1 pathway inhibitor project, DLD1 cells, RT-qPCR, cherry-pick (AID 1053127). Type of experiment: functional, cell-based. Particulars: DLD-1.
The nature of experiment [4]: P. falciparum Dd2 growth inhibitors, dose response, SYBR Green, cherry-picked samples (AID 1159567). The class given is functional, cell-based.
In a further experiment the test system is HEK293. Kind of experiment: HEK293T cell cytotoxicity, dose response, cytotoxicity control, ATP luminescence, cherry-pick samples (AID 687005).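 Note: cells exposed to compound for 48 hours.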 Type of experiment: functional, cell-based. The conditions noted are these: Homo sapiens.
Experiment [5] in a line: HEK293 Cytotoxicity Assay Measured in Cell-Based System Using Plate Reader - 7071-01_Inhibitor_Dose_CherryPick_Activity_Set2. The class given is functional.
In experiment [6] the target is NAD-dependent protein deacylase sirtuin-5, mitochondrial (Homo sapiens, UniProt Q9NXA8). Kind of experiment: SIRT5 desuccinylase inhibitors, dose response, biochemical, fluorescence imaging, cherry-pick, set 5 (AID 720591).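 Note: desuccinylation of succinyl peptide AMC substrate read as fluorescence after trypsin release; potency of inhibitors that lower fluorescence and may act on trypsin instead.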
For another experiment, the system named is H9c2. As to the kind of experiment: cells. The class given is functional, cell-based. Particulars: Rattus norvegicus, H9c2, Myocardium.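 Note: confirmatory concentration-response retest of ultra-high-throughput screening hits for modulation of myocardial damage; cell death induced by hydrogen peroxide oxidative stress; compound pretreatment for 60 min then peroxide exposure for 2 h; potency is for protecting the cells against peroxide damage rather than for killing them.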
Experiment [7] is described as follows: HepG2 cell cytotoxicity, dose response, cytotoxicity control, cherry-picked samples (AID 1159577). Type of experiment: functional, cell-based.
Experiment [8] in a line: inhibitors of HIV Env-driven cell fusion, dose response, cherry-pick (AID 652057). The class given is functional, cell-based.
Experiment [9] can be described thus: growth suppression of beta-catenin-knockout colon cells, dose response, cell-based, HCT116, human colon tumor (AID 1045).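 Note: HCT116 colon tumor cells with beta catenin knocked out; cells exposed to compound for 60 hours.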 Type of experiment: functional.
The next experiment has as its system INS1. As to the kind of experiment: beta cell apoptosis inhibitors, cytokine rescue, dose response, luminescence, retest (AID 449756).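 Note: cell death triggered by IL-1 beta plus TNF-alpha plus IFN-gamma mixture; protective hits raise ATP signal compared with cytokine alone wells.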 The class given is functional, cell-based. Particulars: Rattus norvegicus.
Experiment [10] in a line: growth suppression of PTEN-null colon cells, dose response, cell-based, HCT116 PTEN knockout (AID 1047).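 Note: HCT116 colon tumor cells with PTEN knocked out; cells exposed to compound for 60 hours before readout; potency for loss of cell viability measured by luminescence.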 The class given is functional.
The test system of experiment [11] is Streptococcus sp. 'group A'. As to the kind of experiment: growth inhibition of control SK(-) GAS strain, dose response, counter-screen for streptokinase expression inhibitor project, luminescence, kanamycin, BacTiterGlo, confirmation (AID 1900). Type of experiment: functional, organism-based.
The nature of experiment [12]: Luminescence Cell-Based Dose Retest to Confirm Inhibitors of Cancer Stem Cells. [Related pubchem assays (depositor defined):AID2717, AID2721]. The class given is functional. The conditions noted are these: Homo sapiens.
Experiment [13] concerns the target Disintegrin and metalloproteinase domain-containing protein 17 (Homo sapiens, UniProt P78536). As to the kind of experiment: ADAM17 protease inhibitors, dose response, counter-screen for ADAM10 exosite inhibitor project, biochemical, quenched FRET substrate (AID 743253).
The test system of another experiment is Streptococcus. Kind of experiment: Group A Streptococcus viability loss, dose response, counter-screen for streptokinase expression inhibitor project, luminescence, BacTiterGlo (AID 1915).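 Note: potency for reduction of bacterial viability or growth.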 Type of experiment: functional, organism-based.
In another experiment the target is T1, Streptokinase A (Streptococcus pyogenes serotype M1, UniProt P10520).
T1 sequence (P10520 whole entry): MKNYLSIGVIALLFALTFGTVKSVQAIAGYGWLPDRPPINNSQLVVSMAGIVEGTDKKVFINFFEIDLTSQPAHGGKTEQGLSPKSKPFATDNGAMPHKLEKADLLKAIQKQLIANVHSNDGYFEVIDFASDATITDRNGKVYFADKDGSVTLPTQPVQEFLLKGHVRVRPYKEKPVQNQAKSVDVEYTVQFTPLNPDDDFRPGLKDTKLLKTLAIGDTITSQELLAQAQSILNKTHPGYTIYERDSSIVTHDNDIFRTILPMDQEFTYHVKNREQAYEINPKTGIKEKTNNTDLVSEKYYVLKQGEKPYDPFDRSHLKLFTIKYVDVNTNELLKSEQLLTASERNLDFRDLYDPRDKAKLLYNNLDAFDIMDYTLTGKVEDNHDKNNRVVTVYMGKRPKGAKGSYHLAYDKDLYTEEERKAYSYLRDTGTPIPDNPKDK
As to the kind of experiment: S. pyogenes streptokinase expression inhibitors, potency, dose response, plasminogen activation absorbance, OD405 (AID 1914).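 Note: secreted streptokinase activity via plasminogen activation per viability signal from cell pellet.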 The class given is functional, Streptococcus pyogenes M1 GAS.

Experiment [14] in a line: YAP1 pathway inhibition via CTGF transcript levels, dose response, cell-based, DLD1 colon cancer, RT-qPCR, cherry-pick (AID 1053122). Particulars: Cancer cell lines. The class given is functional.
Experiment [15] is described as follows: P. falciparum 3D7-ScDHODH growth inhibitors, dose response, SYBR Green, dry powder samples (AID 1159570).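 Note: parasite growth measured after 72 hours of compound exposure.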 The class given is functional, cell-based.
The nature of experiment [16]: P. falciparum Dd2 growth inhibitors, dose response, SYBR Green, dry powder samples (AID 1159566).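 Note: potency for growth inhibition with lower SYBR green DNA signal.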 The class given is functional, cell-based.
A short description of experiment [17]: HepG2 cell cytotoxicity, dose response, cytotoxicity control, plate reader, dry powder samples (AID 1159569).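 Note: inhibitor potency with signal falling toward the positive control level.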 The class given is functional, cell-based.
The nature of experiment [18]: P. falciparum ATP4 D1247Y mutant growth inhibitors, dose response, NITD609-resistant line, SYBR Green, dry powder (AID 1159571).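 Note: parasites synchronized at ring stage by sorbitol before testing.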 The class given is functional, cell-based.
A short description of experiment [19]: Plasmodium falciparum Dd2 Sybr green parasite growth Measured in Cell-Based and Microorganism Combination System Using Plate Reader - 2153-01_Inhibitor_Dose_DryPowder_Activity_Set3. Type of experiment: functional.
Experiment [20] is described as follows: MC4R antagonists, dose response, counter-screen for LGR2 antagonist project, cell-based, plate reader, cherry pick (AID 743444).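 Note: transfected HEK 293 cells stimulated with alpha-MSH peptide; potency of inhibitors of the alpha-MSH evoked signal.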 Type of experiment: functional.
A short description of experiment [21]: HepG2 cell cytotoxicity, dose response, cytotoxicity control, plate reader, cherry-pick, antagonist series (AID 743416). Type of experiment: functional, cell-based.
Experiment [22] is described as follows: LGR2 antagonists, dose response, cell-based, HEK293, CRE-luciferase reporter, cherry pick, set 2 (AID 743343).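 Note: transfected cells were stimulated with diluted bursicon conditioned medium after compound addition.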 The class given is functional.
Experiment [23] in a line: HEK293 cell cytotoxicity, dose response, cytotoxicity control, plate reader, cherry-picked samples (AID 743446). Type of experiment: functional, cell-based.
Experiment [24] is described as follows: A549 cell cytotoxicity, dose response, cytotoxicity control, plate reader, cherry-pick, antagonist series (AID 743412). The class given is functional, cell-based.
The nature of experiment [25]: PAX2 cell-based inhibition, dose response, selectivity assay for PAX8 inhibitor project, plate reader, dry powder samples (AID 743048).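 Note: HEK293 cells carrying a WT1 promoter luciferase reporter driven by expressed Pax2; potency is for inhibition of Pax2 driven reporter signal.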 Type of experiment: functional.
A further experiment has as its target Paired box protein Pax-8 (Homo sapiens, UniProt Q06710). As to the kind of experiment: inhibitors of PAX8-driven TPO luciferase reporter, dose response, RMG-I cells, cherry-pick (AID 687027).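 Note: luciferase reporter driven by Pax8 target thyroperoxidase promoter measured by SteadyGlo luminescence.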 Type of experiment: functional, cell-based.
The nature of experiment [26]: cytotoxicity dependent on PAX8, dose response, cell-based, plate reader, dry powder (AID 743049). Type of experiment: functional.
The target of the next experiment is T2, Cytochrome P450 1A2 (Homo sapiens, UniProt P05177).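 Note: PubChem cytochrome P450 panel assay, CYP1A2 panel member.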
T2 sequence (P05177 whole entry): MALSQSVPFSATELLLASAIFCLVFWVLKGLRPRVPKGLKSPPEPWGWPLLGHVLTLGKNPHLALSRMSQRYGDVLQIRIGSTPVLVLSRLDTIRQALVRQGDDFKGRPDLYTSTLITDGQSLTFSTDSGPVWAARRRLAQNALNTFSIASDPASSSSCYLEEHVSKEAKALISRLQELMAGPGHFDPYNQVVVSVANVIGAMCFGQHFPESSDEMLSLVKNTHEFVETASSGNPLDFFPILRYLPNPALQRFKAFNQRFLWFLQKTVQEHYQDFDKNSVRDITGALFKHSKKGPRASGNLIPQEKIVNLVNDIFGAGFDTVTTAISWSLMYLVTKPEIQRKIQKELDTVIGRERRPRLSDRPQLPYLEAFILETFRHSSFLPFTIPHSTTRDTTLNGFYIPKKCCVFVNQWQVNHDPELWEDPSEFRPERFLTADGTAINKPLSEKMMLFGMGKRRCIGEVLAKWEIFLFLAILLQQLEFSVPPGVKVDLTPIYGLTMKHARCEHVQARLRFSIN

Another experiment has as its target Cytochrome P450 2D6 (Homo sapiens, UniProt P10635).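 Note: CYP2D6 member of a cytochrome P450 panel assay.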
The next experiment concerns the target Cytochrome P450 2C19 (Homo sapiens, UniProt P33261). As to the kind of experiment: Cytochrome panel assay with activity outcomes. Panel member name: p450-cyp2c19 Compounds with AC50 equal or less than 10 uM are considered active. The conditions noted are these: read-out: AC50. The class given is functional.
Experiment [27] can be described thus: Dose-response inhibition of insulin secretion in a rat insulinoma line at 5 mM glucose (AID 1117331). Type of experiment: functional, cell-based. The conditions noted are these: INS-1E.

Activity calls are given as the source filed them. Some results are limits rather than exact numbers.

Sequence of NAD-dependent protein deacylase sirtuin-5, mitochondrial (Q9NXA8 whole entry): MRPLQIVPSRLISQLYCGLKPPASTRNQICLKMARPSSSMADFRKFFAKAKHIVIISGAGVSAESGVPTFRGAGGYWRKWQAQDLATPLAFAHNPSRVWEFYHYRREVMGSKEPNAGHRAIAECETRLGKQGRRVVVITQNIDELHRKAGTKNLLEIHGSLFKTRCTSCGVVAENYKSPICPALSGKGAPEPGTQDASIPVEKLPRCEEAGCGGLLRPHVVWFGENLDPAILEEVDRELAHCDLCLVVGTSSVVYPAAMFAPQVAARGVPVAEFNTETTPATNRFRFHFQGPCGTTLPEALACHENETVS
Sequence of Paired box protein Pax-8 (Q06710 whole entry): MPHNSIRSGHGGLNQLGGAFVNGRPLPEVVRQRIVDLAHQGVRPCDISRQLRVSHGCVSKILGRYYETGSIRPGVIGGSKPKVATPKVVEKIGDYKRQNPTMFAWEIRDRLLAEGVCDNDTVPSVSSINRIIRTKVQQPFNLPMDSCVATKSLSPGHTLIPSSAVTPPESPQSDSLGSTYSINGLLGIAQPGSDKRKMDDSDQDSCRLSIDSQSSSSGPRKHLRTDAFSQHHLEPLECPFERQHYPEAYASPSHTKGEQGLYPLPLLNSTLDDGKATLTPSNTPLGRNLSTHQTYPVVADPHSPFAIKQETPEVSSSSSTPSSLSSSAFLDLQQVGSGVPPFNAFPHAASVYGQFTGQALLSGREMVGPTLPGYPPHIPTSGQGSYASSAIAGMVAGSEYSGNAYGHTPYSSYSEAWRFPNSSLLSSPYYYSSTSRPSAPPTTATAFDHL
Sequence of Disintegrin and metalloproteinase domain-containing protein 17 (P78536 whole entry, the tested form may be a part): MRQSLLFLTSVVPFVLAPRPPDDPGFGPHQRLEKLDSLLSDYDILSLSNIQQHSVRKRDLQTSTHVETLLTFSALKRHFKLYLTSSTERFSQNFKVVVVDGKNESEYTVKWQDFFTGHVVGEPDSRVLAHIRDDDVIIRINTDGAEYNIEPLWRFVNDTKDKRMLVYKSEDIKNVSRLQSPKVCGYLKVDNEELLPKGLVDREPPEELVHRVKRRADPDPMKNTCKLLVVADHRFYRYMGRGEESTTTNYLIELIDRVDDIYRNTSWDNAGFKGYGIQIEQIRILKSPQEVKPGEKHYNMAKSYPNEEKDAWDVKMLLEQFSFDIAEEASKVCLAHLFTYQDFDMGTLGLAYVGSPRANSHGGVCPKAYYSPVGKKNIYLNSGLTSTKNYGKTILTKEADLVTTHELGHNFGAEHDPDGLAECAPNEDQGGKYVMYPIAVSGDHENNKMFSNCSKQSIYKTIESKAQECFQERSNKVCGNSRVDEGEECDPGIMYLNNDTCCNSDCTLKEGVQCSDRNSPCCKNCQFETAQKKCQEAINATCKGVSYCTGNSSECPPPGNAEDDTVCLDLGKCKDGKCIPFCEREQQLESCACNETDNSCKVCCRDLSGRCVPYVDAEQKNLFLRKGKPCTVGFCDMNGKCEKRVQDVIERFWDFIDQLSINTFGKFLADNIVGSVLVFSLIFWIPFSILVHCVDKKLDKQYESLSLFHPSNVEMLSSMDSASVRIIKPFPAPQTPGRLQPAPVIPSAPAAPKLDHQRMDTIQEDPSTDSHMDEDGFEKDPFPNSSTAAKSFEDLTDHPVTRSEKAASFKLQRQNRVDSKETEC
Sequence of Cytochrome P450 2D6 (P10635 whole entry): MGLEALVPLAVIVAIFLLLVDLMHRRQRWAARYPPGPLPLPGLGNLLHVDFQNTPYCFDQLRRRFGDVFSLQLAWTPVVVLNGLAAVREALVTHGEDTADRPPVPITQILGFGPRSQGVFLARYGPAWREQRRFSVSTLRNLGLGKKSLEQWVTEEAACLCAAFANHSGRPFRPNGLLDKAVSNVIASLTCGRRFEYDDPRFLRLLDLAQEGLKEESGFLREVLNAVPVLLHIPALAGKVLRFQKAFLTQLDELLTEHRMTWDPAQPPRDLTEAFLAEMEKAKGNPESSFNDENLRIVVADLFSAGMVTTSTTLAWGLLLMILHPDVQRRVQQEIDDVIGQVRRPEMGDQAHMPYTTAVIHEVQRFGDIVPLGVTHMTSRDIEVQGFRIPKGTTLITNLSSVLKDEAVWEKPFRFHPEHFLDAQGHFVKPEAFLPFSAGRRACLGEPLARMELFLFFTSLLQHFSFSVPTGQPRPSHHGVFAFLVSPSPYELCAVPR
Sequence of Cytochrome P450 2C19 (P33261 whole entry): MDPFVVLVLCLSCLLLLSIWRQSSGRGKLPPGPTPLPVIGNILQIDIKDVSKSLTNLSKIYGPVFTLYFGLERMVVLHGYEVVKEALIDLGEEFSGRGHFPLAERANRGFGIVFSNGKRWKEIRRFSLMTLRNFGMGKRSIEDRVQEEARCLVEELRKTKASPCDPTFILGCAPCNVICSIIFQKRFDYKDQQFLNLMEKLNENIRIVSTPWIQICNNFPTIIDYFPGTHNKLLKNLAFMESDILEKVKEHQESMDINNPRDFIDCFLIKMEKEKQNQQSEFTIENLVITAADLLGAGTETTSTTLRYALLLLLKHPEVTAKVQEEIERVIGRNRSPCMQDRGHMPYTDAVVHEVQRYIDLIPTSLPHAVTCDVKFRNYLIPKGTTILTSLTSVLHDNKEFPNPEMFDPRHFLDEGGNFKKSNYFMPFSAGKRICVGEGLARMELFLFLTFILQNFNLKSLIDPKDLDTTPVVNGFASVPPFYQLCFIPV

On to `CN[C@@H]1[C@H](O)[C@H](NC)[C@H]2O[C@@]3(O)C(=O)C[C@@H](C)O[C@H]3O[C@@H]2[C@H]1O`, for which the IC50 in experiment [1] and in [2] was > 40 µM (inactive) each time.
On to `CCNC(=O)c1cc2c(c(-c3cccc(-c4ccccc4F)c3)n1)[C@@H](CCO)N(C(=O)CC1CC1)C2`, for which the AC50 in experiment [3] is 11 µM (active); in experiment [4] it was 5.87 µM (active).
For `O=C(CN(c1ccc(F)cc1)S(=O)(=O)c1ccccc1)NC1CCCCCC1`, the AC50 (in the experiment with HEK293; in experiment [5]) was 33.4 µM (active) in each case.
On to `COc1ccc(S(=O)(=O)N2CCOCC2)cc1NC(=O)c1cccc2c(=O)c(C)c(-c3ccccc3)oc12`, for which the AC50 in [6] is > 30 µM (inactive). Also, in the experiment with H9c2, the IC50 was > 79 µM (inactive).
As for `O=C(Nc1ccc(F)cc1)N1C[C@H]2[C@@H](c3ccccc31)[C@H](CO)N2C(=O)c1ccccc1F`, the AC50 was 4.75 µM (active) in [4] and > 39 µM (inactive) in experiment [7].
As for `COc1ccc2c3c(n(C)c2c1)[C@@H](CO)N(C(=O)C1CCOCC1)CC31CCN(Cc2cccc(F)c2)CC1`, the AC50 in experiment [4] is 6.52 µM (active); in experiment [7] it was 10.8 µM (active); in experiment [8] it was 0.629 µM (active).
As to `Cc1ccc(NS(=O)(=O)c2ccc(Cl)c(NC(=S)NC(=O)C3CCCCC3)c2)cc1Cl`, the EC50 in experiment [9] was 20.8 µM (active); in [10], 19.8 µM (active); in experiment [11], 0.756 µM (active); with Streptococcus, 4.65 µM (active); on Streptokinase A, 2.48 µM (active). The results for the AC50 (in the experiment on INS1; in [12]) were 10.2 µM (active) and 3.05 µM (active), respectively. Besides, in [13], the IC50 was > 69.5 µM (inactive).
In the case of `COc1ccccc1NC(=O)N1CCCCN2[C@H](CO)[C@H](c3ccc(-c4cccc(C#N)c4)cc3)[C@@H]2C1`, the AC50 in experiment [14] is 1.44 µM (active); in [3], 11.6 µM (active).
On to `N#C[C@@H]1[C@H](c2ccc(-c3cccc(F)c3)cc2)[C@@H](CO)N1C(=O)NC1CCCC1`, for which the AC50 in experiment [15] is 13 µM (active); in experiment [16] it was 0.117 µM (active); in [17], > 100 µM (inactive); in [18] it was 0.239 µM (active); in [19] it was 0.326 µM (active); in [4], 0.483 µM (active).
With `COc1ccccc1C#Cc1ccc([C@H]2[C@@H](CO)N(C(=O)C3CC3)[C@H]2C#N)cc1`, the AC50 is 2.22 µM (active) in [15]; 0.457 µM (active) in [16]; > 100 µM (inactive) in [17]; 1.09 µM (active) in experiment [18]; 2.28 µM (active) in experiment [19].
Regarding `C[C@H]1CCCCO[C@H](CN(C)S(=O)(=O)c2ccc(Cl)cc2)[C@@H](C)CN([C@@H](C)CO)C(=O)c2cc(NS(=O)(=O)c3cccs3)ccc2O1`, the AC50 (in the experiment with HEK293; in [5]) was 15.6 µM (active) each time.
In the case of `C[C@H]1CN([C@@H](C)CO)C(=O)c2cc(NC(=O)Nc3ccc(C(F)(F)F)cc3)ccc2O[C@H]1CN(C)S(=O)(=O)c1cccs1`, the AC50 in experiment [20] was 23.1 µM (active); in [21] it was > 52 µM (inactive); in experiment [22], 32.4 µM (active); in [23] it was 29.1 µM (active); in experiment [24], 18 µM (active).
For `C[C@H](CO)N1C[C@H](C)[C@H](CN(C)C(=O)Nc2ccc(-c3cccs3)cc2)OCc2cnnn2CCCC1=O`, the AC50 was > 70 µM (inactive) in experiment [25], < 0.26 µM (active) at Paired box protein Pax-8 and 11.5 µM (active) in experiment [26].
For `COc1ccc(C(=O)NCC(=O)OCc2ccccc2F)cc1`, the AC50 in [6] was > 30 µM (inactive).
Regarding `CC[C@H](c1ccc(O)cc1)[C@@H](CC)c1ccc(O)cc1` [HEXESTROL], the figures for the AC50 on Cytochrome P450 1A2, on Cytochrome P450 2D6 and at Cytochrome P450 2C19 were 12.6 µM (inconclusive), 15.8 µM (inconclusive) and 3.16 µM (inconclusive), respectively. For the same compound, the IC50 in experiment [1] was 6.88 µM (inactive); in experiment [2], > 40 µM (inactive).
With `COc1ccc(CN(CCN(C)C)c2ccccn2)cc1` [PYRILAMINE], the IC50 in experiment [27] is 15.4 µM (inactive).
